The results in this text go back to article PMC6983213, “Combining Chalcones with Donepezil to Inhibit Both Cholinesterases and Aβ Fibril Assembly” (Molecules, 2019).

Assay [1] deals with EeAChE (AChE from Electrophorus electricus) (Electrophorus electricus, UniProt O42275). Description: biochemical. The following applies: for IC50: Ellman's method, pH 8.0, 25 °C, triplicate, ± SDEV, read-out: Inhibition (IC50) of EeAChE; for selectivity index (SI): based on IC50 values against EeAChE and EfBChE. How it is done: (§1) The ChE inhibition assays were performed as previously described. The 1,3- and 1,4-chalcone-donepezil hybrids (0.1 nM to 100 μM) were dissolved in sodium phosphate buffer ((100 μL), 0.1 M, pH 8.0). […] All assays were performed in triplicate. The data was plotted as a sigmoidal curve and IC50 values were calculated using SigmaPlot 14.0 (Systat Software, San Jose, CA, USA).

Assay [2] concerns the target EfBChE (BChE from Equus ferus) (Equus caballus, UniProt P81908). Description: biochemical. It is filed as biochemical. Conditions: Ellman's method, pH 8.0, 25 °C, triplicate, ± SDEV; read-out: Inhibition (IC50) of EfBChE. How it is done:
as §1

The target of assay [3] is T1, N-biotinyl-Aβ(1–42) (bioAβ42) oligomer assembly (Homo sapiens, UniProt P05067).
T1 construct: N-biotinyl Aβ(1–42) (bioAβ42) was purchased from Anaspec; purchased Anaspec (Fremont, CA, USA) AS-23523-05
Description: biochemical. Conditions: for bioAβ42 oligomer assembly inhibition (in words): 1.56 to 50 μM, alone or in 1:1 / 1:1:1 mixtures; for EC50: concentration range 50 to 1.56 μM, duplicate, n = 3 independent experiments, ± SDEV, read-out: EC50 against bioAβ42 oligomer assembly. How it is done:
We first examined the effect of the synthesized 1,3- and 1,4-chalcone-donepezil hybrids 15a–15f and 16a–16f on the assembly of N-biotinyl-Aβ(1–42) (bioAβ42) monomers into oligomers. We quantified the assembly of bioAβ42 into soluble oligomers by using an ELISA assay in which the soluble oligomers were captured on NeutrAvidin^TM-coated ELISA plates and detected with streptavidin-horseradish peroxidase and colorimetric readout (Figure 3).
The plates were then stored in their blocked form at 4 °C prior to use for the oligomer assembly and dissociation assays.
The assembly of bioAβ42 into soluble oligomers was quantified with an ELISA assay in which the soluble oligomers were captured with the NeutrAvidin^TM coating the ELISA plates. The bound oligomers were detected with streptavidin-horseradish peroxidase (SA-HRP). […] Below, please find the details of the three steps (Steps 1–3) used for the oligomer assembly assay.
Step 1: Preparation of monomeric bioAβ42. For a low background, it was essential to rigorously pretreat the bioAβ42 peptide to convert (disaggregate) the multimeric species that form upon storage in the solid state, or even frozen in 1,1,1,3,3,3-hexafluoroisopropanol (HFIP) to monomers. The required amount of stock bioAβ42 peptide (0.5 mg dissolved at 1 mg/mL in HFIP) was pipetted into a polypropylene microfuge tube, dried to a thin film under a gentle air or N2 stream, and then disaggregated for 10 min at rt in neat trifluoroacetic acid (TFA). After removal of the TFA by drying with an air or N2 stream, DMSO was added to produce a 2.3 μg/mL (50×) stock solution.
Step 2: Assembly of bioAβ42 oligomers. 2 μL of disaggregated monomeric 50× bioAβ42 peptide in DMSO (prepared in Step 1) was pipetted into the bottom of each well of a polypropylene 96-well plate. […] The 96-well plate was sealed and incubated at rt for 30 min without shaking. The bioAβ42 oligomer assembly was stopped by adding 50 μL of 0.3% Tween 20 v/v in distilled H2O.
Step 3: Measurement of bioAβ42 oligomers. […] The 96-well plate was then sealed and incubated for 2 h while shaking at 150 rpm at rt. […] The plate was sealed and incubated for 1 h while shaking at 150 rpm at rt. The plate was washed as previously described, and 100 μL/well of HRP substrate (i.e., 1 mM:0.07 mM/tetramethylbenzidine:H2O2) in 0.2 M citrate buffer, pH 4.0 was added. The plate was incubated at rt for 5 to 10 min and the reaction was stopped by the addition of 100 μL/well of 1% v/v H2SO4. The absorbance of each well was read at 450 nm with a BioTek HT Synergy plate reader.
The effects of various chalcones, donepezil, donepezil analogue, and 1,3-chalcone-donepezil hybrids were tested for their ability to inhibit the bioAβ42 oligomer assembly and dissociation either alone or in combination with each other. The experiments were performed as described in the biotinyl-Aβ(1–42) (bioAβ42) oligomer assembly and dissociation assays section.

For assay [4], the system named is ADPBC (Alzheimer's disease PIB binding complex). The experiment in a line: 3H-PIB binding competition/titration, ADPBC. More on the design: species or system Human. The following applies: compounds at 10 μM (titration 10 to 0.03 μM); 1.2 nM 3H-PIB. Here is the method:
Human AD brain frontal cortical tissue (from the Sanders-Brown Center on Aging Alzheimer’s Disease Center Brain Bank at the University of Kentucky) was processed as follows.
The plates were sealed and incubated for 3 h at 22 °C, without shaking, and transferred to a 96-well Millipore Multiscreen HTS Hi Flow FB (GF/B) filter plate, and filtered with a multi-well plate vacuum manifold (Millipore Corporation, Bedford, MA, USA). […] Specific binding of ^3H-PIB was determined by subtracting the non-specific binding determined in the presence of 1 μM BTA-1.
The titration of compounds with ^3H-PIB bound to Aβ(1–40) and Aβ(1–42) fibrils and AD brain extract (ADPBC) were performed to further determine the competition of our compounds for the ^3H-PIB binding site of the AD brain. The experiments were performed as described in the ^3H-PIB binding assays of Section 3.4.3 with the use of a concentration range of 10 to 0.03 μM for the compounds tested.

Structures are written as SMILES. Where “and” joins values, the source holds several entries; their conditions need not be identical. Equal entries are not always repeated.

Chain of EfBChE (BChE from Equus ferus) (P81908 whole entry): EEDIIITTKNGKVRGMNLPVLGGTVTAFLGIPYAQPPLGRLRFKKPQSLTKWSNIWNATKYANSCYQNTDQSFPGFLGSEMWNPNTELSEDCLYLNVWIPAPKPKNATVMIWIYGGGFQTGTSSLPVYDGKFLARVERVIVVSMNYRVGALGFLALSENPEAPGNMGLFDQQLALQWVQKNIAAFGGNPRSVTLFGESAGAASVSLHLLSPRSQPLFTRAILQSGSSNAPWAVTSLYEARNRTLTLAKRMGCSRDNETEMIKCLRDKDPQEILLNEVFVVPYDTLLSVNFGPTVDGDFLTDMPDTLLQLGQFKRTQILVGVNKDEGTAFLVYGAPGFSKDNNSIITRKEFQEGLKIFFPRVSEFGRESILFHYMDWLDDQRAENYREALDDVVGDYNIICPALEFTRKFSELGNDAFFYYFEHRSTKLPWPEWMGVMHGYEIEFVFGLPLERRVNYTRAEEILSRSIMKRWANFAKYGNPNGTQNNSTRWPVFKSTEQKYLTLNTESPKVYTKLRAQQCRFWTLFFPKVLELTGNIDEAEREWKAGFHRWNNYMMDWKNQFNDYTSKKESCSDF
Chain of EeAChE (AChE from Electrophorus electricus) (O42275 24-633): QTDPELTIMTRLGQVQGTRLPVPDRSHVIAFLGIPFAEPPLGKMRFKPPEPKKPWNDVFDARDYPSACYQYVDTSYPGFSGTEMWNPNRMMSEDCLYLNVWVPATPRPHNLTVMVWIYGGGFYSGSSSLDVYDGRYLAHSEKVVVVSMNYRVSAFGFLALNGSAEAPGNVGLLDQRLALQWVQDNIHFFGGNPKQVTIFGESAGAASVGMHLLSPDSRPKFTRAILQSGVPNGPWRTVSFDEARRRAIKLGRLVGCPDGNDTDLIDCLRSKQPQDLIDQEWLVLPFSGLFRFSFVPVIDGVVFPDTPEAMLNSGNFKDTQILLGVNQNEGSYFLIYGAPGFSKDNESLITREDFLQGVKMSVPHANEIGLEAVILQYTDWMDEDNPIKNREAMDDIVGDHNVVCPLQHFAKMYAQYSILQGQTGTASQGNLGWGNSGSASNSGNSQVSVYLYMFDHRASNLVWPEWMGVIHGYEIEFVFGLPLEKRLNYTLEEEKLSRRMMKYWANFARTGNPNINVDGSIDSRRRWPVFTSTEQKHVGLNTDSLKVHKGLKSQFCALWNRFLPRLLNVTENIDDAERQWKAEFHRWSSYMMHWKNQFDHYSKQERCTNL
T1 sequence (P05067 672-713): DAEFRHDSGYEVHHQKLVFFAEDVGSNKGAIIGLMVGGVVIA

Turning to `COc1cc2c(cc1OCCCCCCOc1cccc(C(=O)/C=C/c3ccc(N(C)C)cc3)c1)C(=O)C(CC1CCN(Cc3ccccc3)CC1)C2` (stereo not shown) [15c, (E)-2-((1-Benzylpiperidin-4-Yl)Methyl)-6-((6-(3-(3-(4-(Dimethylamino)Phenyl)Acryloyl)Phenoxy)Hexyl)Oxy)-5-Methoxy-2,3-Dihydro-1H-Inden-1-One], in assay [1], the IC50 came out at 1.22 ± 0.18 µM and the “selectivity index (SI)” value is reported as “≈3.3”. For the same compound, the IC50 in assay [2] was approximately 4 µM. In assay [3], the “bioAβ42 oligomer assembly inhibition (in words)” value is “better inhibition of bioAβ42 oligomer assembly” and the EC50 worked out at 8.67 ± 0.15 µM.

Regarding `COc1cc2c(cc1OCCCCCCCCOc1cccc(C(=O)/C=C/c3ccc(N(C)C)cc3)c1)C(=O)C(CC1CCN(Cc3ccccc3)CC1)C2` (stereo not shown) [15d, (E)-2-((1-Benzylpiperidin-4-Yl)Methyl)-6-((8-(3-(3-(4-(Dimethylamino)Phenyl)Acryloyl)Phenoxy)Octyl)Oxy)-5-Methoxy-2,3-Dihydro-1H-Inden-1-One], in assay [1], the half-inhibitory concentration (IC50) was 1.22 ± 0.13 µM and the “selectivity index (SI)” value was “≈1.6”. In assay [2], the concentration for half-maximal inhibition (IC50) is approximately 2 µM. Besides, in assay [3], the “bioAβ42 oligomer assembly inhibition (in words)” value was “better inhibition of bioAβ42 oligomer assembly” and the concentration giving a half-maximal response (EC50) amounted to 9.67 ± 1.15 µM.

With `COc1cc2c(cc1OCCCCCCCCCCOc1cccc(C(=O)/C=C/c3ccc(N(C)C)cc3)c1)C(=O)C(CC1CCN(Cc3ccccc3)CC1)C2` (stereo not shown) [15e, (E)-2-((1-Benzylpiperidin-4-Yl)Methyl)-6-((10-(3-(3-(4-(Dimethylamino)Phenyl)Acryloyl)Phenoxy)Decyl)Oxy)-5-Methoxy-2,3-Dihydro-1H-Inden-1-One], in assay [1], the IC50 was 1.82 ± 0.45 µM and the “selectivity index (SI)” value is on record as “≈5.5”. The 50% inhibitory concentration (IC50) in assay [2] is approximately 10 µM. Moreover, in assay [3], the “bioAβ42 oligomer assembly inhibition (in words)” value is listed as “did not prevent bioAβ42 oligomerization”; the concentration giving a half-maximal response (EC50) is 31.7 µM and > 12 µM.

On to `COc1cc2c(cc1OCCCCCCCCCCCCOc1cccc(C(=O)/C=C/c3ccc(N(C)C)cc3)c1)C(=O)C(CC1CCN(Cc3ccccc3)CC1)C2` (stereo not shown) [15f, (E)-2-((1-Benzylpiperidin-4-Yl)Methyl)-6-((12-(3-(3-(4-(Dimethylamino)Phenyl)Acryloyl)Phenoxy)Dodecyl)Oxy)-5-Methoxy-2,3-Dihydro-1H-Inden-1-One], for which, in assay [1], the 50% inhibitory concentration (IC50) was 1.67 ± 0.8 µM and the “selectivity index (SI)” value is more than 60. Also, the IC50 in assay [2] is more than 100 µM. Further, in assay [3], the “bioAβ42 oligomer assembly inhibition (in words)” value is given as “did not prevent bioAβ42 oligomerization”; the 50% effective concentration (EC50) is 45.3 µM and > 12 µM.

For `COc1cc2c(cc1OCCCCOc1ccc(C(=O)/C=C/c3ccc(N(C)C)cc3)cc1)C(=O)C(CC1CCN(Cc3ccccc3)CC1)C2` (stereo not shown) [16b, (E)-2-((1-Benzylpiperidin-4-Yl)Methyl)-6-(4-(4-(3-(4-(Dimethylamino)Phenyl)Acryloyl)Phenoxy)Butoxy)-5-Methoxy-2,3-Dihydro-1H-Inden-1-One], in assay [1], the half-inhibitory concentration (IC50) is 0.14 ± 0.02 µM and the “selectivity index (SI)” value is “≈3.6”. For the same compound, the half-maximal inhibitory concentration (IC50) in assay [2] is approximately 0.5 µM. Besides, in assay [3], the “bioAβ42 oligomer assembly inhibition (in words)” value is on record as “better inhibition of bioAβ42 oligomer assembly” and the EC50 turned out to be 2 ± 0.2 µM.

For `COc1cc2c(cc1OCCCCCCOc1ccc(C(=O)/C=C/c3ccc(N(C)C)cc3)cc1)C(=O)C(CC1CCN(Cc3ccccc3)CC1)C2` (stereo not shown) [16c, (E)-2-((1-Benzylpiperidin-4-Yl)Methyl)-6-((6-(4-(3-(4-(Dimethylamino)Phenyl)Acryloyl)Phenoxy)Hexyl)Oxy)-5-Methoxy-2,3-Dihydro-1H-Inden-1-One], in assay [1], the IC50 was approximately 0.5 µM and the “selectivity index (SI)” value is reported as “≈1.2”. Besides, in assay [2], the IC50 was approximately 0.6 µM. Moreover, in assay [3], the “bioAβ42 oligomer assembly inhibition (in words)” value is recorded as “better inhibition of bioAβ42 oligomer assembly” and the concentration for a half-maximal effect (EC50) worked out at 2.6 ± 0.46 µM.

Turning to `COc1cc2c(cc1OCCCCCCCCOc1ccc(C(=O)/C=C/c3ccc(N(C)C)cc3)cc1)C(=O)C(CC1CCN(Cc3ccccc3)CC1)C2` (stereo not shown) [16d, (E)-2-((1-Benzylpiperidin-4-Yl)Methyl)-6-((8-(4-(3-(4-(Dimethylamino)Phenyl)Acryloyl)Phenoxy)Octyl)Oxy)-5-Methoxy-2,3-Dihydro-1H-Inden-1-One], in assay [1], the IC50 was found to be 0.52 ± 0.06 µM and the “selectivity index (SI)” value was “≈1.9”. In addition, the concentration for half-maximal inhibition (IC50) in assay [2] was approximately 1 µM. For the same compound, in assay [3], the “bioAβ42 oligomer assembly inhibition (in words)” value is reported as “better inhibition of bioAβ42 oligomer assembly” and the EC50 turned out to be 4.13 ± 0.15 µM.

With `COc1cc2c(cc1OCCCCCCCCCCOc1ccc(C(=O)/C=C/c3ccc(N(C)C)cc3)cc1)C(=O)C(CC1CCN(Cc3ccccc3)CC1)C2` (stereo not shown) [16e, (E)-2-((1-Benzylpiperidin-4-Yl)Methyl)-6-((10-(4-(3-(4-(Dimethylamino)Phenyl)Acryloyl)Phenoxy)Decyl)Oxy)-5-Methoxy-2,3-Dihydro-1H-Inden-1-One], the IC50 in assay [1] came to 1.38 ± 0.18 µM. Further, in assay [2], the half-inhibitory concentration (IC50) was approximately 5 µM. Moreover, the “displacement of 3H-PIB from ADPBC (in words)” value in assay [4] is recorded as “ADPBC affinity comparable to that of 16a”. In assay [3], the “bioAβ42 oligomer assembly inhibition (in words)” value is on record as “did not prevent bioAβ42 oligomerization” and the EC50 is 9.73 ± 0.55 µM.

As for `COc1cc2c(cc1OCCCCCCCCCCCCOc1ccc(C(=O)/C=C/c3ccc(N(C)C)cc3)cc1)C(=O)C(CC1CCN(Cc3ccccc3)CC1)C2` (stereo not shown) [16f, (E)-2-((1-Benzylpiperidin-4-Yl)Methyl)-6-((12-(4-(3-(4-(Dimethylamino)Phenyl)Acryloyl)Phenoxy)Dodecyl)Oxy)-5-Methoxy-2,3-Dihydro-1H-Inden-1-One], the IC50 in assay [1] and in assay [2] was more than 100 µM throughout. The “displacement of 3H-PIB from ADPBC (in words)” value in assay [4] is reported as “ADPBC affinity comparable to that of 16a”. Also, the “bioAβ42 oligomer assembly inhibition (in words)” value in assay [3] was “did not prevent bioAβ42 oligomerization”. Further, the EC50 in assay [3] was 24.1 µM and > 12 µM.

Regarding `CN(C)c1ccc(/C=C/C(=O)c2ccc(O)cc2)cc1` [compound 6, (E)-3-(4-(Dimethylamino)Phenyl)-1-(4-Hydroxyphenyl)Prop-2-En-1-One], in assay [3], the EC50 was more than 50 µM.
